1 compound from paper PMC5983617, “Hypouricemic Effect of 2,5-Dihydroxyacetophenone, a Computational Screened Bioactive Compound from Ganoderma applanatum, on Hyperuricemic Mice” (International Journal of Molecular Sciences, 2018) can be followed below.

The target of this assay is T1, XOD (xanthine oxidase) (Bos taurus, UniProt P80457).
T1 construct: gene XDH; oxidase form
Put plainly: xanthine oxidation, absorbance at […] nm, microplate reader. The assay is classed as biochemical.

SMILES strings stand for the structures.

T1 sequence (P80457 2-1332): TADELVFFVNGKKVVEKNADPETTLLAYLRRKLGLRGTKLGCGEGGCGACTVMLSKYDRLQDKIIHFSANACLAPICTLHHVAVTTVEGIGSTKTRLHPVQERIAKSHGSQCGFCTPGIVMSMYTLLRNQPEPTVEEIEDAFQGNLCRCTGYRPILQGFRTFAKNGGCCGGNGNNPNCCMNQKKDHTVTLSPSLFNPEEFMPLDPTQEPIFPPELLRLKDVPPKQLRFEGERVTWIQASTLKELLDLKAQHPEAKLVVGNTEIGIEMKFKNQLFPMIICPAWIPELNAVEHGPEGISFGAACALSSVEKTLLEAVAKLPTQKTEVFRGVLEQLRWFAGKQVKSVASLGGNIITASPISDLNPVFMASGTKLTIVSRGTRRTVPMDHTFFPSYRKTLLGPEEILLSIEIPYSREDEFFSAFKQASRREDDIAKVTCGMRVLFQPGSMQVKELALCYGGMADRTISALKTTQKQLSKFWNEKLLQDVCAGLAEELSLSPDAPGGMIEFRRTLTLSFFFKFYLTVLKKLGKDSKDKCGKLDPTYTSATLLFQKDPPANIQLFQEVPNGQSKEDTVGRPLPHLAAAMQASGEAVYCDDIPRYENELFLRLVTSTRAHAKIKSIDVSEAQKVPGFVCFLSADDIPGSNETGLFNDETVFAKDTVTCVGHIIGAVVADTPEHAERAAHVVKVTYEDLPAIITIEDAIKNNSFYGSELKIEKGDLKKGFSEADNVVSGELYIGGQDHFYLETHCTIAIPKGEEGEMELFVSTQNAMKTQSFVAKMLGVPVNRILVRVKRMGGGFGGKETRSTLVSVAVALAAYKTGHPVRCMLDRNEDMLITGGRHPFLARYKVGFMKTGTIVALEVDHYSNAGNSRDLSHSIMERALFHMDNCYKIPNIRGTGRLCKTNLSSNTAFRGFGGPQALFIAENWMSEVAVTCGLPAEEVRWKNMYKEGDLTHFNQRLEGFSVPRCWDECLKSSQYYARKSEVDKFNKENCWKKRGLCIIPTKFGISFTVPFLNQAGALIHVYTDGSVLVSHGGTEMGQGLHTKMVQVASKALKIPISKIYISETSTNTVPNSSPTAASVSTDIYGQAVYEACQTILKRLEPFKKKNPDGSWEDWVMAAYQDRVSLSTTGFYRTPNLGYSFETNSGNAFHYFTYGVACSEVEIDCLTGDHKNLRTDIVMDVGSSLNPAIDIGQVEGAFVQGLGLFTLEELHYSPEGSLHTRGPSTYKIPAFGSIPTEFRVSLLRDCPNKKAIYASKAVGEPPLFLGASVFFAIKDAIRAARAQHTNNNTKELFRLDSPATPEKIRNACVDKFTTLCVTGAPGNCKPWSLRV

As to `CC(=O)c1cc(O)ccc1O` [DHAP], half-maximal inhibition (IC50) required 8.12 ± 0.27 µM.
